From US6197959A, “Piperidine derivatives” (Hoffmann-La Roche Inc., priority 1999, dated 2001)

Target: T1, human renin (Homo sapiens, UniProt P00797)
T1 sequence (P00797 67-406): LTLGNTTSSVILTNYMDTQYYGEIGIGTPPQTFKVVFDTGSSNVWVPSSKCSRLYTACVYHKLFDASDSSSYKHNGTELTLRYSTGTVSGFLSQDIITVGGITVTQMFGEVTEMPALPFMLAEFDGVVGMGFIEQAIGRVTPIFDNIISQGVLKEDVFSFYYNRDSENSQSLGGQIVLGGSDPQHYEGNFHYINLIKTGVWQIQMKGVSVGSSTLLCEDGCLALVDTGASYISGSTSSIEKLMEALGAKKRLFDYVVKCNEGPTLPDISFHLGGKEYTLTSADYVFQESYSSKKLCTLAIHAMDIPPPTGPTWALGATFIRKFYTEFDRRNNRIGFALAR
Assay: In vitro Test With Pure Human Renin
Format: biochemical
Settings: human tetradecapeptide substrate, pH 7.4, 3 h at 37° C., angiotensin I by RIA
Protocol: The tests can be carried out in analogy to those described by D. T. Pals et al. in Hypertension Vol. 8, 1105-1112 (1986) or J. Boger et al. in J. Med. Chem. 28, 1779-1790 (1985) or […] et al. in J. Med. Chem. 30, 2137-2144 (1987) or T. Kokubu et al. in Biochem. Biophys. Res. Commun. 118, 929-993 (1984): In vitro Test With Pure Human Renin The test is carried out in Eppendorf test tubes. The incubation mixture consists of (1) 100 μl of human renin in buffer A (0.1 M sodium phosphate solution, pH 7.4, containing 0.1% bovine serum albumin, 0.1% sodium aside and 1 mM ethylenediaminetetraacetic acid), sufficient for a renin activity of 2-3 ng of angiotensin I/ml/hr.; (2) 145 μl of buffer A: (3) 30 μl of 10 mM human tetradecapeptide renin substrate (hTD) in 10 mM hydrochloric acid: (4) 15 μl of dimethyl sulphoxide with or without inhibitor and (5) 10 μl of a 0.03 molar solution of hydroxyquinoline sulphate in water. The samples are incubated for three hours at 37° C. and, respectively, 4° C. in triplicate. 2×100 μl samples per test tube are used in order to measure the production of angiotensin I via RIA (standard radioimmunoassay; clinical assay solid phase kit). Cross reactivities of the antibody used in the RIA are: angiotensin I 100%; angiotensin II 0.0013%; hTD (angiotensin […]-OH) 0.09%. The production of angiotensin I is determined by the difference between the test at 37° C. and that at 4° C. The following controls are carried out: (a) Incubation of hTD samples without renin and without inhibitor at 37° C. and 4° C. The difference between these two values gives the base value of the angiotensin I production. (b) Incubation of hTD samples with renin, but without inhibitor at 37° C. and 4° C. The difference between these values gives the maximum value of the angiotensin I production. In each sample the base value of the angiotensin I production is subtracted from the angiotensin I production which is determined. […] The IC50 values are determined from a linear regression curve from a logit-log plot.

| SMILES | IC50 [nM] |
| --- | --- |
| COc1ccccc1COCCCOc1ccc([C@H]2CCNC[C@@H]2OCc2ccc3c(c2)N(CC#N)CCC3)cc1 [G, (3R,4R)-[7-(4-[4-[3-(2-methoxy-benzyloxy)-propoxy]-phenyl]-piperidin-3-yloxymethyl)-3,4-dihydro-2H-quinolin-1-yl]-acetonitrile] | 0.07 |
| COc1ccccc1COCCCOc1ccc([C@H]2CCNC[C@@H]2OCc2ccc3c(c2)N(CCNS(N)(=O)=O)CCC3)cc1 [Compound I, (3R,4R)-N-[2-[7-[4-[4-[3-(2-methoxy-benzyloxy)-propoxy]-phenyl]-piperidin-3-yloxymethyl]-3,4-dihydro-2H-quinolin-1-yl]-ethyl]-sulfamide] | 0.06 |
| COc1ccccc1COCCCOc1ccc([C@H]2CCNC[C@@H]2OCc2ccc3c(c2)N(CCNS(C)(=O)=O)CCC3)cc1 [H, (3R,4R)-N-[2-[7-[4-[4-[3-(2-methoxy-benzyloxy)-propoxy]-phenyl]-piperidin-3-yloxymethyl]-3,4-dihydro-2H-quinolin-1-yl]-ethyl]-methanesulfonamide] | 0.07 |
| CCOC(=O)CN1CCCc2ccc(CO[C@H]3CNCC[C@@H]3c3ccc(OCCCOCc4ccccc4OC)cc3)cc21 [B, (3R,4R)-[7-(4-[4-[3-(2-methoxy-benzyloxy)-propoxy]-phenyl]-piperidin-3-yloxymethyl)-3,4-dihydro-2H-quinolin-1-yl]-acetic acid ethyl ester] | 0.05 |
| COC(=O)CN1CCCc2ccc(CO[C@H]3CNCC[C@@H]3c3ccc(OCCCOCc4ccccc4OC)cc3)cc21 [D, (3R,4R)-[7-(4-[4-[3-(2-methoxy-benzyloxy)-propoxy]-phenyl]-piperidin-3-yloxymethyl)-3,4-dihydro-2H-quinolin-1-yl]-acetic acid methyl ester] | 0.02 |
| COCCCN1CCCc2ccc(CO[C@H]3CNCC[C@@H]3c3ccc(OCCCOCc4ccccc4OC)cc3)cc21 [F, (3R,4R)-7-[4-[4-[3-(2-methoxy-benzyloxy)-propoxy]-phenyl]-piperidin-3-yloxymethyl)-1-(3-methoxy-propyl]-1,2,3,4-tetrahydro-quinoline] | 0.05 |
| COc1ccccc1COCCCOc1ccc([C@H]2CCNC[C@@H]2OCc2ccc3c(c2)N(CCNC(N)=O)CCC3)cc1 [J] | 0.09 |
| COC(=O)CCN1CCCc2ccc(COC3CNCC[C@@H]3c3ccc(OCCCOCc4ccccc4OC)cc3)cc21 (mixture of isomers) [E, (3RS,4R)-3-[7-(4-[4-[3-(2-methoxy-benzyloxy)-propoxy]-phenyl]-piperidin-3-yloxymethyl)-3,4-dihydro-2H-quinolin-1-yl]-propionic acid methyl ester] | 0.04 |
| COc1ccccc1COCCCOc1ccc([C@H]2CCNC[C@@H]2OCc2ccc3c(c2)N(CCNC(=O)C(F)(F)F)CCC3)cc1 [K, (3R,4R)-2,2,2-trifluoro-N-[2-[7-[4-[4-[3-(2-methoxy-benzyloxy)-propoxy]-phenyl]-piperidin-3-yloxymethyl]-3,4-dihydro-2H-quinolin-1-yl]-ethyl]-acetamide] | 0.05 |
| COc1ccccc1COCCCOc1ccc([C@H]2CCNC[C@@H]2OCc2ccc3c(c2)N(CCCO)CCC3)cc1 [C, (3R,4R)-3-[7-[4-[4-[3-(2-methoxy-benzyloxy)-propoxy]-phenyl]-piperidin-3-yloxymethyl]-3,4-dihydro-2H-quinolin-1-yl]-propan-1-ol] | 0.08 |
| COc1ccccc1COCCCOc1ccc([C@H]2CCNC[C@@H]2OCc2ccc3c(c2)N(CCNC(C)=O)CCC3)cc1 [A, (3R,4R)-N-[2-[7-[4-[4-[3-(2-methoxy-benzyloxy)-propoxy]-phenyl]-piperidin-3-yloxymethyl]-3,4-dihydro-2H-quinolin-1-yl]-ethyl]-acetamide] | 0.05 |
